Values of other authors as cited in patent publication US4127534A, “Novel tripeptides, intermediates therefor and pharmaceutical compositions and methods employing said tripeptides” (priority 1977, dated 1978).

How the values were obtained:
[1] = test system: partially purified brain opiate receptor sites
[2] = injected directly into the brain of the rat

Substance: H-Tyr-Gly-Gly-Phe-Met-OH [methionine enkephalin]
- binding to partially purified brain opiate receptor sites [1]: binds stereo-specifically
- analgesic activity [2]: only weak analgesic agent of short duration
